From US6670383B2, “Pyranocoumarin compounds as a novel pharmacophore with anti-TB activity” (priority 2001, dated 2003)
≈ marks a conversion by molar mass, not a printed value. Where “and” joins values, the source holds several entries; their conditions need not be identical. Equal entries are not always repeated. Where two headings read alike, the source gives them in different places.

Columns and labels:
[1] = tested on: H37Rv strain of M. tuberculosis; assay: BACTEC 460 radiometric system in BACTEC 12B medium: inhibition and MIC; assay type: cell-based; details: for % Inhibition: 12.5 μg/mL; for MIC: lowest concentration inhibiting 99% of the inoculum
[2] = IC50 of Table 2 (used for SI = IC50/MIC; test not described)
M. tuberculosis H37Ra [3] = assay: colorimetric microdilution broth assay with alamar Blue, initial screen at four log10 dilutions; assay type: cell-based; details: Mycobacterium tuberculosis, H37RA, initial screening at 0.128, 1.28, 12.8 and 128 μg/mL, read-out: MIC
Procedure: The compounds synthesized above were evaluated for activity against M. tuberculosis H37Ra using a colorimetric microdilution broth assay that incorporated the REDOX indicator alamar Blue, which indicates the growth and viability by the metabolic reduction of the dye from blue to red^18.
In an initial screen, the compounds were assayed in duplicate at four log10 dilutions, with the highest concentration being 128 μg/mL (therefore, tested concentrations were 0.128, 1.28, 12.8, and 128 μg/mL). Each solubilized test compound was diluted in broth medium (Middlebrook 7H9+ADC enrichment+0.2% glycerol) at twice the desired concentration and 0.05 mL of each dilution then added to appropriate wells in duplicate in a 96 well (U-shaped) microtiter plates. A plate format was designed for up to seven (7) compounds per plate. Each plate also included uninoculated drug controls, viability controls, uninoculated medium controls, and positive drug controls. The inoculum for each well consisted of 0.05 mL of culture, standardized as described above to provide an inoculum in each microtiter well of approximately 10^5 CFU/mL. The plates were covered with a lid, placed in polyethylene bags and incubated for at 37° C. for 6 days. At that time, alamar Blue, diluted in Tween 80, was added to each well followed by further incubation for about 20 hours. The plates were read in an optical microplate reader programmed to subtract absorbance at 600 nm from absorbance at 570 nm. This effectively blanked out turbidity and absorbance due to oxidized dye. The amount of dye reduced, resulting in a change from blue to red, is indicative of drug yielding a differential absorption of zero or less.

M. tuberculosis H37Ra [4] = assay: MIC and MBC determination using 2-fold dilutions; assay type: cell-based; details: for MIC / MBC: Mycobacterium tuberculosis
[5] = tested on: M. tuberculosis strain H37Ra; assay: MIC against strains of Table 1; assay type: cell-based
[6] = tested on: M. tuberculosis strain H37Rv; assay: MIC against strains of Table 1; assay type: cell-based
M. tuberculosis = details: first line anti-TB drugs, for comparison; cited from earlier work
[7] = tested on: M. tuberculosis strain Erdman (TMCC 107/ATCC 35801); assay: bone marrow-derived murine macrophage model, BC99; assay type: cell-based
TB = details: in vivo; cited from earlier work
[8] = tested on: M. tuberculosis' synthesis of protein, RNA, DNA and lipid; assay: incorporation of radiolabeled precursors into mycobacterial macromolecular components; assay type: cell-based
[9] = tested on: M. tuberculosis strain CSU 93 (CDC-95-031551); assay: bone marrow-derived murine macrophage model, BC99; assay type: cell-based; details: concentration at which 99% of the inoculum is destroyed
Procedure: (§1) For comparison, MICs for the first line anti-TB drugs are 0.025-0.05 μg/mL for isoniazid, 0.005-0.2 μg/mL for rifampin, and 0.4-10 μg/mL for ethambutol. However, in a bone marrow-derived murine macrophage model, the BC 99 value of (+)-calanolide A, a concentration at which 99% of the inoculum of M. tuberculosis is destroyed, was 1.1 μg/mL (3 μM) against strain Erdman (TMCC 107/ATCC 35801) and 1.8 μg/mL (5 μM) against strain CSU 93 (CDC-95-031551), compared to 0.7-0.8 μg/mL (5-6 μM) for the positive control drug isoniazide.

M. avium = assay: inhibition of M. avium; assay type: cell-based; details: 12.5 μg/mL
Procedure: as §1

[10] = Mycobacterium tuberculosis, read-out: MIC

Compound: CCCc1cc(=O)oc2c3c(c4c(c12)OC(C)(C)C=C4)O[C@@H](C)[C@H](C)[C@H]3O [(−)-Calanolide A (2), (−)-Calanolide A]
- % Inhibition [1]: 98%
- MIC [1]: 6.25 µg/mL (≈ 16.9 µM)
- IC50 [2]: >10 µg/mL

Compound: CCCc1cc(=O)oc2c(C(=O)CC)c(OC)c3c(c12)OC(C)(C)CC3 [Compound 44b, 5-Methoxy-2,2-dimethyl-6-propionyl-10-propyl-3,4-dihydro-2H-pyrano[2,3-f]chromen-8-one]
- MIC (M. tuberculosis H37Ra [3]): 1.28 to 12.8 µg/mL (≈ 3.57 to 35.7 µM)
- MIC (M. tuberculosis H37Ra [4]; 2-fold dilutions, lowest concentration that completely inhibits growth, H37Ra, read-out: MIC): 16 µg/mL (≈ 44.6 µM)
- MBC (M. tuberculosis H37Ra [4]; minimum bactericidal concentration, H37Ra, read-out: MBC): > 64 µg/mL

Compound: CCCc1cc(=O)oc2c(C(N)CC)c(OCCO)c3c(c12)OC(C)(C)C=C3 (centres unmarked) [Compound 45e, 6-(1-Aminopropyl)-5-(2-hydroxyethoxy)-2,2-dimethyl-10-propyl-2H-pyrano[2,3-f]chromen-8-one]
- MIC (M. tuberculosis H37Ra [3]): 1.28 to 12.8 µg/mL (≈ 3.3 to 33 µM)
- effect on M. tuberculosis (M. tuberculosis H37Ra [4]): bactericidal
- MBC (M. tuberculosis H37Ra [4]; H37RA): 32 µg/mL (≈ 82.6 µM)
- MIC (M. tuberculosis H37Ra [4]; H37RA): 16 µg/mL (≈ 41.3 µM)

Compound: CC[C@@H](CO)NCCN[C@@H](CC)CO [Ethambutol]
- MIC [5, 10]: 4 µg/mL (≈ 19.6 µM)
- MIC [6, 10]: 2 µg/mL (≈ 9.79 µM)
- MIC (M. tuberculosis): 0.4 to 10 µg/mL

Compound: NNC(=O)c1ccncc1 [Isoniazid]
- MIC [5, 10]: 0.063 µg/mL (≈ 0.459 µM)
- MIC [6, 10]: 0.031 µg/mL (≈ 0.226 µM)
- MIC (M. tuberculosis): 0.025 to 0.05 µg/mL
- BC 99 ([7]; positive control, one range printed for strains Erdman and CSU 93, listed as isoniazide): 0.7-0.8 μg/mL and 5-6 μM

Compound: CO[C@H]1/C=C/O[C@@]2(C)Oc3c(C)c(O)c4c(O)c(c(/C=N/N5CCN(C)CC5)c(O)c4c3C2=O)NC(=O)/C(C)=C\C=C\[C@H](C)[C@H](O)[C@@H](C)[C@@H](O)[C@@H](C)[C@H](OC(C)=O)[C@@H]1C [Rifampin]
- MIC [6, 10]: 0.016 µg/mL (≈ 0.0194 µM)
- MIC (M. tuberculosis): 0.005 to 0.2 µg/mL
- TB relapse rate (TB): 5%

Compound: [H]/N=C(/N)N[C@H]1[C@H](O)[C@@H](O)[C@H](O[C@@H]2O[C@@H](C)[C@](O)(C=O)[C@H]2O[C@@H]2O[C@@H](CO)[C@H](O)[C@@H](O)[C@@H]2NC)[C@@H](N/C(N)=N\[H])[C@@H]1O [Streptomycin]
- inhibition of protein synthesis ([8]; positive control, at 5 hours): 43%
- MIC [6, 10]: 0.25 µg/mL (≈ 0.43 µM)

Compound: CO[C@H]1/C=C/O[C@@]2(C)Oc3c(C)c(O)c4c(O)c(c(/C=N/N5CCN(C6CCCC6)CC5)c(O)c4c3C2=O)NC(=O)/C(C)=C\C=C\[C@H](C)[C@H](O)[C@@H](C)[C@@H](O)[C@@H](C)[C@H](OC(C)=O)[C@@H]1C [rifapentine]
- TB relapse rate (TB): 10%

Compound: (+)-Calanolide A [(+)-Calanolide A (1)]
- inhibition of RNA synthesis, extent and time frame [8]: very similar to the positive control rifampin
- inhibition of protein synthesis [8]: 32%
- inhibition of lipid synthesis ([8]; […], 12-hour time point, DMSO alone 51%): 99%
- inhibition of DNA synthesis ([8]; […], period of 3 hours, DMSO alone 24%): Approximately 77%
- BC 99 [9]: 1.8 μg/mL and 5 μM
- MIC [5]: 16 µg/mL
- MIC [6]: 8 µg/mL
- % Inhibition [1]: 96%
- % Inhibition ([1]; listed as (+)-calanolide A): greater than 96%
- MIC [1]: 3.13 µg/mL
- MIC ([1]; listed as (+)-calanolide A): 3.13 μg/mL and 8 μM
- BC 99 ([7]; concentration at which 99% of the inoculum is destroyed, strain Erdman): 1.1 μg/mL and 3 μM
- kind of agent from drug inhibition patterns ([7]; macrophage model): bactericidal agent
- % Inhibition (M. avium): 81%
- IC50 [2]: 7.60 µg/mL
